Assay results from US9475789B2, “Use of polyenylpyrrole derivatives for treating inflammation” (WELLHEAD BIOLOGICAL TECHNOLOGY CORP., priority 2014, dated 2016).
Entries after “also recorded” stand apart in the source; their conditions may differ.

Legend:
NF-κB p65 = NF-κB p65 nuclear translocation ELISA, RAW 264.7 macrophages; type: cell-based, murine; conditions: compound 1h 10-40 μM, LPS 20 min
Method: (§1) (A) RAW 264.7 macrophages (5×10^5/ml) or (B) J774A.1 macrophages (5×10^5/ml) were incubated with compound 1h or DMSO for 30 min followed by LPS (1 μg/ml) stimulating for 20 min, then the phosphorylation levels of IKK-α and IκB-α and total IκB-α protein level were analyzed by Western blot. (C) RAW 264.7 macrophages (5×10^5/ml) or (D) J774A.1 macrophages (5×10^5/ml) were incubated with compound 1h (10-40 μM) or DMSO for 30 min followed by LPS (1 μg/ml) stimulating for 20 min, then the nuclear translocation of NF-κB were analyzed by ELISA. (E) RAW-Blue™ cells (5×10^5/ml) were incubated with compound 1h (2.5-40 μM) or DMSO for 30 min followed by LPS (1 μg/ml) stimulating for 24 h, then the SEAP activity was measured by QUANTI-Blue™. […] In (C), (D), and (E), the data are expressed as the mean±SD for three separate experiments. *, **, and *** indicate a significant difference at the level of p<0.05, p<0.01, and p<0.001 respectively compared to LPS group.
Nuclear protein from RAW 264.7 and J774A.1 cells were extracted using a Nuclear Extract Kit (Active Motif) according to the manufacturer's instructions and nuclear NF-κB p65 activation quantified using an ELISA-based TransAM NF-κB kit (Active Motif, Tokyo, Japan) according to the manufacturer's protocol by reading the absorbance with a microplate absorbance reader (Bio-Rad Laboratories, Inc) at 450 nm with a reference wavelength of 655 nm.

IL-6 [1] = test: IL-6 ELISA, LPS-primed ATP-stimulated J774A.1 macrophages; type: cell-based, mouse; conditions: LPS-primed J774A.1; compound 30 min before ATP stimulation
Method: (§2) (A) J774A.1 macrophages (1×10^6/ml) and (B) peritoneal macrophages (1×10^5/ml) were incubated with compound 1h for 30 min followed by LPS (1 μg/ml) stimulating for 5.5 h, then the cells were stimulated with ATP (5 mM) for an additional 30 min. The IL-1β in the culture medium was measured by ELISA and the expression of active caspase-1 (p10) was measured by Western blot. In (C) and (D), J774A.1 macrophages (1×10^6/ml) were incubated with LPS (1 μg/ml) for 5.5 h, then cells were incubated with compound 1h for 30 min followed by stimulating with ATP (5 mM) for an additional 30 min. The IL-1β and IL-6 in the culture medium were measured by ELISA and the expression of active caspase-1 (p10) was measured by Western blot. In (E), J774A.1 macrophages (1×10^6/ml) were incubated with compound 1h for 30 min followed by LPS (1 μg/ml) stimulating for 6 h. The expression of NLRP3 and proIL-1β were measured by Western blot.
(§3) The effects of tested samples on IL-1β, TNF-α and IL-6 production were measured by ELISA according to the manufacturer's instruction. […] Following the addition of 100 μl of stop solution to each well to stop the reaction, the absorbance of the plate was measured by a microplate reader at 450 nm wavelength.

NF-κB = NF-κB reporter assay (SEAP), RAW-Blue cells; type: cell-based, murine; conditions: compound 1h 2.5-40 μM, LPS 24 h
Method: as §1
RAW-Blue™ cells, RAW 264.7 macrophages which stably express a secreted embryonic alkaline phosphatase (SEAP) gene inducible by NF-κB, were seeded in 60 mm dishes at a density of 5×10^5 cells/ml, and grown overnight in a 5% CO2 incubator at 37° C. […] Results of the SEAP activity were assessed by measuring the optical density at 655 nm using an ELISA reader.

[2] = test system: NLRP3 inflammasome-mediated IL-1β secretion; test: IL-1β ELISA, LPS+ATP-activated J774A.1 macrophages (NLRP3 inflammasome); type: cell-based, mouse
Method: as §2, §3

IL-6 [3] = test: IL-6 ELISA, LPS-activated peritoneal macrophages; type: cell-based, C57BL/6 mice; conditions: LPS 1 μg/ml 24 h
Method: (A) J774A.1 macrophages (4×10^5/ml), (B) peritoneal macrophages (4×10^5/ml), and (C) JAWSII dendritic cells (4×10^5/ml) were incubated with compound 1h or DMSO for 30 min followed by stimulating with LPS (1 μg/ml) for 24 h, then IL-6 and TNF-α concentration in culture medium were assayed by ELISA. The data are expressed as the mean±SD for three separate experiments. *, **, and *** indicate a significant difference at the level of p<0.05, p<0.01, p<0.001 respectively compared to LPS group.
(§4) The effects of tested samples on IL-1β, TNF-α and IL-6 production were measured by ELISA according to the manufacturer's instruction. In brief, 50 μl of biotinylated antibody reagent and 50 μl of supernatant were added to an anti-mouse IL-1β, TNF-α and IL-6 precoated stripwell plate, and incubated at room temperature for 2 h. After washing the plate three times with washing buffer, 100 μl of diluted streptavidin-HRP concentrate was added to each well and incubated at room temperature for 30 min. The washing process was repeated; then 100 μl of a premixed tetramethylbenzidine substrate solution was added to each well and developed at room temperature in the dark for 30 min. Following the addition of 100 μl of stop solution to each well to stop the reaction, the absorbance of the plate was measured by a microplate reader at 450 nm wavelength.

IL-6 [4] = test: IL-6 ELISA, RAW 264.7 macrophages; type: cell-based, murine
Method: as §4

iNOS = test: Western blot of iNOS protein in LPS-activated RAW 264.7 macrophages; type: cell-based, murine; conditions: LPS-activated RAW 264.7, compared with vehicle
Method: In (A) and (C), cells (5×10^5/ml) were incubated with polyenylpyrrole derivatives or DMSO (vehicle) for 30 min followed by stimulating with LPS (1 μg/ml) for 24 h, then NO (A), IL-6 and TNF-α (C) concentration in culture medium were assayed by Griess reaction and ELISA, respectively. In (B), cells (5×10^5/ml) were pretreated with polyenylpyrrole derivatives or DMSO for 30 min followed by stimulating with LPS (1 μg/ml) for 24 h, then the protein expression of iNOS and COX-2 were assayed by Western blot.
(§5) Whole cell lysates were separated by SDS-PAGE and electrotransferred to a PVDF membrane. The membranes were incubated in blocking solution—5% nonfat milk in phosphate buffered saline with 0.1% Tween 20—at room temperature for 1 h. Each membrane was incubated with a specific primary antibody at room temperature for 2 h. After washing three times in PBS with 0.1% Tween 20, the membrane was incubated with an HRP-conjugated secondary antibody directed against the primary antibody. The membrane was developed by an enhanced chemiluminescence Western blot detection system.

IKK-α and IκB-α = test: Western blot of IKK-α and IκB-α, LPS-activated J774A.1 macrophages; type: cell-based, murine; conditions: LPS-activated J774A.1, LPS 20 min
Method: as §1, §5

Structure (SMILES): O=c1cc(O)cc(/C=C/C=C/C=C/C=C/c2[nH]ccc2Cl)o1 [Compound 1h]
- NF-κB nuclear translocation (NF-κB p65): inhibited NF-κB nuclear translocation
- IL-6 secretion (IL-6 [1]): no significant effect
- NF-κB transcriptional activity (NF-κB): reduced
- IL-1β secretion ([2]; J774A.1, compound before LPS and ATP treatment): significantly inhibited
- IL-1β secretion ([2]; LPS-primed J774A.1, compound 30 min before ATP stimulation): inhibited IL-1β secretion
- secretion of IL-6 (IL-6 [3]): reduced
- relative potency in decreasing IL-6 secretion (IL-6 [4]; LPS-activated RAW 264.7): more potent than 1i and 1n
- secretion of IL-6 (IL-6 [4]; LPS-activated RAW 264.7, LPS 1 μg/ml 24 h): decreased production; also recorded: decreased the secretion of IL-6 by LPS-activated RAW 264.7 macrophages in a dose-dependent manner
- background level of IL-6 (IL-6 [4]; compound alone, no LPS, data not shown): did not alter
- expression of iNOS protein (iNOS): decreased production; also recorded: reduced the expression of iNOS protein
- IκB-α degradation (IKK-α and IκB-α): partially rescued
- phosphorylation level of IKK-α (IKK-α and IκB-α): inhibited
- phosphorylation level of IκB-α (IKK-α and IκB-α): inhibited
